Patent publication US8603531B2, “Nanometer-sized prodrugs of NSAIDs” (Cedars-Sinai Medical Center, priority 2008, dated 2013)

Tests used:
[1] = Hydrodynamic size and size distribution of nanoprodrugs by dynamic light scattering; format: physicochemical
Method: Briefly, 25 mg of the compounds were dissolved in acetone (5 ml) containing polysorbate 80 (0.1% w/v). […] Following 15 min of magnetic stirring, the acetone was removed under reduced pressure at room temperature.
The hydrodynamic size measurement and size distribution of the nanoprodrugs were performed by the dynamic light scattering (DLS) using a Coulter N4-Plus Submicron Particle Sizer (Coulter Corporation, Miami, Fla., USA). The nanoprodrugs were diluted in deionized water and the analysis was performed at a scattering angle of 90° and at a temperature of 25° C. Three separate preparations were analyzed for each nanoprodrug. For each preparation mean diameter and mean polydispersity index (P.I.) of three determinations were calculated. The mean diameter±standard deviation (S.D.) and P.I.±S.D. were calculated from the three mean diameters and mean P.I.'s of the three separate preparations.

esterase [2] = assay: Recovery of NSAIDs from oxidized nanoprodrugs (esterase hydrolysis); format: in vitro ADME, porcine; settings: 250 μM, HOCl 500 μM 2 min, esterase 2 U/ml, overnight 37° C.
Method: The recovery yield of NSAIDs was determined for oxidized and non-oxidized nanoprodrugs. The nanoprodrugs prepared from ALA-TEG-Ibu, ALA-TEG-Npx and ALA-TEG-Ind (250 μM in PBS, pH 7.4) were incubated in the presence and absence of HOCl (500 μM) for 2 min. Esterase (2 U/ml) was added and mixed by pipetting up and down. In order to determine the total amount of available NSAIDs from the oxidized and non-oxidized nanoprodrugs, the hydrolysis was carried out overnight at 37° C. The reaction mixture was centrifuged for 10 min at 20,000×g and the hydrolyzed NSAIDs in the supernatant were quantified using RP-HPLC. Error bar represents±S.D. calculated from triplicate determinations.

esterase [3] = assay: Effect of nanoprodrug oxidation on the rate of enzymatic hydrolysis; format: in vitro ADME, porcine; settings: determined immediately after addition of esterase 2 U/ml; HOCl 500 μM 2 min
Method: In order to evaluate the effect of prodrug oxidation on the rate of enzymatic hydrolysis, the initial hydrolysis rate of NSAIDs from the oxidized and non-oxidized nanoprodrugs was determined. The nanoprodrugs prepared from ALA-TEG-Ibu, ALA-TEG-Npx and ALA-TEG-Ind (250 μM in PBS, pH 7.4) were incubated in the absence and presence of HOCl (500 μM) for 2 min. Esterase (2 U/ml) was added and mixed by pipetting up and down. The reaction mixture was centrifuged immediately after addition of esterase and the supernatant was quickly transferred into a new tube and incubated further to complete hydrolysis. The hydrolyzed NSAIDs in the supernatant were quantified using RP-HPLC as described above. Error bar represents±S.D. calculated from triplicate determinations.
To evaluate the sequence of hydrolysis after oxidation, the nanoprodrugs were incubated in presence of HOCl (500 μM) for 2 min and esterase (2 U/ml) was added. The reaction mixture was mixed by pipetting up and down and immediately centrifuged for 10 min at 20,000×g. The supernatant was analyzed using RP-HPLC as described above.

Esterase (porcine liver) = assay: Enzymatic destabilization / hydrolysis of nanoprodrugs by esterase; format: in vitro ADME; settings: esterase 5 U/ml; for Parent drugs hydrolyzed / released from the nanoprodrugs after 1 h incubation / Concentration of the released drugs / Drug release: nanoprodrug 500 μM; for Concentration of the released drugs / Drug release: 60 min, room temperature, PBS pH 7.4; for Concentrations of the released drugs after 12 h incubation: compared with ALA-TEG-Npx and ALA-TEG-Ibu after 1 h
Method: Esterase (porcine liver, Sigma, code E3019) was added to the final concentration of 5 U/ml. For the nanoprodrugs from the three bifunctional prodrugs, ALA-TEG-Ibu, ALA-TEG-Npx and ALA-TEG-Ind, the reduction in turbidity was monitored using ultraviolet/visible spectrometer (Bio-Rad SmartSpec™ 3000) for 60 min at room temperature with a wavelength λ=500 nm and 1 min acquisition interval. For the nanoprodrugs from the three dimeric prodrugs, Ibu2TEG, Npx2TEG and Ind2TEG, the samples were taken during the incubation for 12 h at room temperature with appropriate time interval and the reduction in turbidity was measured.
To determine the amount of enzymatically hydrolyzed NSAIDs, samples were centrifuged for 10 min at 20,000×g and the supernatants were analyzed by RP-HPLC using a C18 reversed phase column (Section 2.5).
The concentration of the NSAIDs was determined using calibration curves generated in the concentration range of 25-500 μM. Error bar represents±S.D. calculated from triplicate determinations. The stability of the nanoprodrugs under the experimental conditions in the absence of esterase was evaluated as follows. The purified nanoprodrugs were suspended in PBS (pH 7.4) and incubated for 12 h at room temperature. The amount of the intact prodrugs was determined using RP-HPLC as described above.

[4] = Oxidative destabilization of nanoprodrugs (turbidity at 500 nm after HOCl); settings: nanoprodrug 250 μM, HOCl 25-1000 μM
Method: The nanoprodrugs were purified by centrifuging three times at 20,000×g for 10 min at 25° C. and resuspending each time in the same volume of deionized water. The purified nanoprodrugs were resuspended in phosphate buffered saline (PBS, pH 7.4) to give the final concentration of 250 μM NSAID derivatives. The concentration of HOCl in the diluted commercial sodium hypochlorite solution was determined spectrophotometrically (ε292=350 M^−1 cm^−1) (Morris, 1966). HOCl was added to the suspension of nanoprodrugs to give the final concentration of 25-1000 μM and the reduction in turbidity was measured immediately using ultraviolet/visible spectrometer (Bio-Rad SmartSpec™ 3000, Hercules, Calif., USA) at room temperature with a wavelength λ=500 nm.

[5] = tested on: U87-MG human glioma cell line; settings: nanoprodrug 10 to 100 μM, 3 days
Method: The cells were grown and maintained in Minimum Essential Medium (MEM) (Invitrogen) containing antibiotics 100 U/mL penicillin (Invitrogen) and 100 μg/mL streptomycin (Invitrogen), and supplemented with 10% fetal bovine serum (FBS) (Invitrogen). Cells were kept at 37° C. in a humidified atmosphere including 5% CO2.
Nanoprodrugs were prepared from the monomeric derivative Ibu2TEG (25 mg) as described in Example 6 and dialyzed in phosphate buffered saline (PBS) over night. The human glioma cells (U87-MG) were seeded in a 25 cm^2 flask at 2.5×10^5 cells/5 mL and allowed to grow for 24 h. The medium was changed and the cells were treated with nanoprodrugs at final concentration ranging from 10 to 100 μM for the monomeric derivative Ibu2TEG. After a 3-day treatment, the medium was remove, cells were washed with PBS and 1 mL of 0.25% trypsin/EDTA (Gibco) was added to detach the cells. […] Control culture was treated with PBS.

[6] = tested on: human glioma cells (U87-MG); assay: WST-1 cell viability assay, glioma cells; format: cell-based; settings: free ibuprofen up to 600 μM, 72 h
Method: Growth inhibition was evaluated by the WST-1 (water-soluble tetrazolium salt) colorimetric assay (Boehringer Mannheim) according to the manufacturer's instructions. […] Cells were incubated at 37° C. for 1-4 h, and the absorbance was read by an ELISA plate reader at 450 nm. The cell viability was calculated as follows: Cell viability (%)=(Abss/Absc)×100, where Abss is the absorbance of cells treated with drugs and Absc is the absorbance of control cells incubated with cell culture medium only (See FIG. 9.).

[7] = tested on: human glioma cells (U87-MG); assay: Cell death by propidium iodide uptake; format: cell-based; settings: 200 μM of ibuprofen in DMSO, 72 h
Method: The human glioma cells (U87-MG) were seeded at 1×10^5 cells per well in 6-well plates, and allowed to grow for 24 h. The medium was changed and the cells were treated with 50 or 100 μM of nanoprodrug of Ibu2TEG or 200 μM of ibuprofen dissolved in DMSO for 72 h. Control cultures were treated with DMSO or cell culture medium only. After the end of treatment, glioma cells were incubated with 5 μM of propidium iodide (Sigma) for 1 h. Propidium iodide fluorescence was excited at 515-560 nm using an inverted microscope fitted with a standard rhodamine filter.

[8] = another NSAID nanosphere, Table 2C
[9] = hydrodynamic size of additional nanospheres, Table 2B
[10] = polydispersity index of additional nanospheres, Table 2B
[11] = nanoprodrugs of the derivative, Table 2A, n = 3, ±S.D., DLS 25° C.
[12] = polydispersity index of nanoprodrugs, Table 2A, n = 3, ±S.D.

| Structure (SMILES) | Size (nm) [1, 9] [nm] | P.I. [1, 10] | Size (nm) [1, 11] [nm] | P.I. [1, 12] | other results |
| --- | --- | --- | --- | --- | --- |
| O=C(OCCOCCOCCOCCOC(=O)c1ccccc1Nc1cccc(C(F)(F)F)c1)c1ccccc1Nc1cccc(C(F)(F)F)c1 [(FA)2TEG, Tetraethylene glycol(flufenamic acid)2] |  |  |  |  | P.I. [1, 8]: 0.11; Size (nm) [1, 8]: 118 ± 32 nm |
| COc1ccc2c(c1)c(CC(=O)OCCOCCOC(=O)CCCCC1CCSS1)c(C)n2C(=O)c1ccc(Cl)cc1 (stereo not drawn) [ALA-DEG-IND, (α-Lipoic acid)-diethylene glycol(indomethacin)] | 187 ± 54 | 0.13 |  |  |  |
| CC(C)Cc1ccc(C(C)C(=O)OCCOCCOC(=O)CCCCC2CCSS2)cc1 (stereo not drawn) [ALA-DEG-Ibu, (α-Lipoic acid)-diethylene glycol(ibuprofen)] | 210 ± 53 | 0.09 |  |  |  |
| COc1ccc2cc([C@H](C)C(=O)OCCOCCOC(=O)CCCCC3CCSS3)ccc2c1 (stereo partly drawn) [ALA-DEG-Npx, (α-Lipoic acid)-diethylene glycol(naproxen)] | 274 ± 56 | 0.05 |  |  |  |
| O=C(CCCCC1CCSS1)OCCOCCOCCOCCOC(=O)c1ccccc1Nc1cccc(C(F)(F)F)c1 (stereo not drawn) [ALA-TEG-FA, (α-Lipoic acid)-tetraethylene glycol(flufenamic acid)] | 149 ± 36 | 0.08 |  |  |  |
| CC(C)Cc1ccc(C(C)C(=O)OCCOCCOCCOCCOC(=O)CCCCC2CCSS2)cc1 (stereo not drawn) [ALA-TEG-Ibu] |  |  | 251 ± 13 | 0.10 ± 0.03 | Released parent drugs from the oxidized nanoprodrugs in comparison with non-oxidized controls (esterase [2]): 80%; Increase of the amount of hydrolyzed drugs from oxidized vs non-oxidized nanoprodrugs (esterase [3]): approximately two; Parent drugs hydrolyzed / released from the nanoprodrugs after 1 h incubation (Esterase (porcine liver)): approximately 90%; Concentration of the released drugs (Esterase (porcine liver)): 417 µM; Drug release (Esterase (porcine liver)): 83% |
| COc1ccc2c(c1)c(CC(=O)OCCOCCOCCOCCOC(=O)CCCCC1CCSS1)c(C)n2C(=O)c1ccc(Cl)cc1 (stereo not drawn) [ALA-TEG-Ind] |  |  | 253 ± 25 | 0.09 ± 0.05 | Induction phase of oxidative destabilization [4]: longest induction phase |
| COc1ccc2cc([C@H](C)C(=O)OCCOCCOCCOCCOC(=O)CCCCC3CCSS3)ccc2c1 (stereo partly drawn) [ALA-TEG-Npx] |  |  | 298 ± 6 | 0.05 ± 0.01 | Released parent drugs from the oxidized nanoprodrugs in comparison with non-oxidized controls (esterase [2]): 87%; Induction phase of oxidative destabilization [4]: less apparent; Increase of the amount of hydrolyzed drugs from oxidized vs non-oxidized nanoprodrugs (esterase [3]): three; Parent drugs hydrolyzed / released from the nanoprodrugs after 1 h incubation (Esterase (porcine liver)): approximately 90%; Concentration of the released drugs (Esterase (porcine liver)): 454 µM; Drug release (Esterase (porcine liver)): 91% |
| CC(C)Cc1ccc(C(C)C(=O)OCCOCCOCCOCCOC(=O)C(C)c2ccc(CC(C)C)cc2)cc1 (stereo not drawn) [Ibu2TEG, Tetraethylene glycol(ibuprofen)2] |  |  | 186 ± 11 | 0.13 ± 0.02 | Concentrations of the released drugs after 12 h incubation (Esterase (porcine liver)): comparable; Cell number compared to the control culture [5]: significant decrease in cell number |
| COc1ccc2c(c1)c(CC(=O)OCCOCCOCCOCCOC(=O)Cc1c(C)n(C(=O)c3ccc(Cl)cc3)c3ccc(OC)cc13)c(C)n2C(=O)c1ccc(Cl)cc1 [Ind2TEG] |  |  | 159 ± 10 | 0.06 ± 0.03 |  |
| COc1ccc2cc(C(C)C(=O)OCCOCCOCCOCCOC(=O)C(C)c3ccc4cc(OC)ccc4c3)ccc2c1 (stereo not drawn) [Npx2TEG] |  |  | 259 ± 9 | 0.06 ± 0.02 | Concentrations of the released drugs after 12 h incubation (Esterase (porcine liver)): comparable |
| CC(C)Cc1ccc(C(C)C(=O)O)cc1 (stereo not drawn) [ibuprofen] |  |  |  |  | Effect on cell viability [6]: did not show any significant effect; Propidium iodide incorporation (cell death) [7]: no significant propidium iodide incorporation |
